Laboratory results taken from ChEMBL document CHEMBL2203141, “Heterologously expressed β-hydroxyl fatty acids from a metagenomic library of a marine sponge” (2012).
Values after ≈ are worked out from the molar mass of the structure shown. Active and inactive are the calls of the source. The calls are words filed in the database; no cut-off is given here.

What was measured:
[1] = Antifungal activity against Penicillium commune by serial two-fold dilution microtiter plate method; format: functional
Penicillium roqueforti = experiment: Antifungal activity against Penicillium roqueforti by serial two-fold dilution microtiter plate method; format: functional
Aspergillus fumigatus = experiment: Antifungal activity against Aspergillus fumigatus by serial two-fold dilution microtiter plate method; format: functional
[2] = Antifungal activity against […] mucilaginosa by serial two-fold dilution microtiter plate method; format: functional
Wickerhamomyces anomalus = experiment: Antifungal activity against Pichia anomala by serial two-fold dilution microtiter plate method; format: functional; conditions: Hansenula anomala
Kluyveromyces marxianus = experiment: Antifungal activity against Kluyveromyces marxianus by serial two-fold dilution microtiter plate method; format: functional
Aspergillus nidulans = experiment: Antifungal activity against Aspergillus nidulans by serial two-fold dilution microtiter plate method; format: functional
Candida albicans = experiment: Antifungal activity against Candida albicans by broth dilution; format: functional
Escherichia coli = experiment: Antibacterial activity against Escherichia coli by broth dilution method; format: functional, organism-based
Staphylococcus aureus = experiment: Antibacterial activity against methicillin-resistant Staphylococcus aureus by broth dilution method; format: functional, organism-based
Bacillus cereus = experiment: Antibacterial activity against Bacillus cereus by broth dilution method; format: functional

Row | MIC [1] [µg/mL] | MIC (Penicillium roqueforti) [µg/mL] | MIC (Aspergillus fumigatus) [µg/mL] | MIC [2] [µg/mL] | MIC (Wickerhamomyces anomalus) [µg/mL] | MIC (Kluyveromyces marxianus) [µg/mL] | MIC (Aspergillus nidulans) [µg/mL] | SMILES | MIC (Candida albicans) [µg/mL] | Activity (Escherichia coli) | Activity (Staphylococcus aureus) | MIC (Bacillus cereus) [µg/mL]
1 | 10 (≈ 46.2 µM) | 10 (≈ 46.2 µM) | 10 (≈ 46.2 µM) | 10 (≈ 46.2 µM) | 10 (≈ 46.2 µM) | 10 (≈ 46.2 µM) | 10 (≈ 46.2 µM) | CCCCCCCCC[C@@H](O)CC(=O)O | – | – | – | –
2 | – | – | – | – | – | – | – | CCCCCCCCCCCCC[C@@H](O)CC(=O)O | 12.5 (≈ 45.9 µM) | inactive | inactive | 6.25 (≈ 22.9 µM)
3 | 10 (≈ 40.9 µM) | 10 (≈ 40.9 µM) | 10 (≈ 40.9 µM) | 10 (≈ 40.9 µM) | 10 (≈ 40.9 µM) | 10 (≈ 40.9 µM) | 10 (≈ 40.9 µM) | CCCCCCCCCCC[C@@H](O)CC(=O)O | – | – | – | –
